Reference: patent publication US20170325451A1, “Use of Alkyl Gallate for Stimulating the Natural Defenses of Plants” (priority 2014, published 2017)

Experiments:
[1] = test system: tobacco leaf; assay: Infiltration of tobacco leaf: chlorosis and synthesis of autofluorescent compounds; assay type: in vivo; settings: 4 days after infiltration; for production of autofluorescent compounds around the infiltration sites: solutions 5 mmol·L^−1, infiltrated
Experimental: The plants are 8 weeks old, in the 12-15 leaf stage, cultured in a greenhouse or growing chamber.
50 μL of different EG solutions having molar concentrations (0.5 mmol·L^−1 to 5 mmol·L^−1) and of MG and PG solutions having a molar concentration of 5 mmol·L^−1 are infiltrated on the upper side of the tobacco leaf. The negative control is water; the positive control is salicylic acid (SA) at a molar concentration of […].
The different plants are photographed 4 days after the infiltration.
The negative control is water.

[2] = test system: tobacco BY-2 cells; assay: Alkalinization of the extracellular medium of tobacco BY-2 cell cultures; assay type: cell-based; settings: for alkalinization of the extracellular medium: molar concentrations from 2 to 5 mmol·L^−1, BY-2 cultures
Experimental: The cell cultures are tobacco BY-2 cells maintained in cultures at 24° C., under stirring in darkness.
EG solutions (molar concentrations from 0.5 mmol·L^−1 to 5 mmol·L^−1), MG (1 mmol·L^−1 and 5 mmol·L^−1), or PG solutions (1 mmol·L^−1 and 5 mmol·L^−1) are added to tobacco BY-2 cell cultures at time T0. The pH is measured continuously (every 10 min) in the extracellular medium for 150 minutes.
The cell cultures are tobacco BY-2 cells maintained in cultures at 24° C., under stirring and in darkness.
Two GA solutions (0.5 mmol·L^−1 and 5 mmol·L^−1) are added to tobacco BY-2 cell cultures at time T0. The pH is measured continuously (every 10 min) in the extracellular medium for 150 minutes. EG solutions at different molar concentrations (0.5 mmol·L^−1 and 5 mmol·L^−1) are used as controls.

[3] = test system: transcripts coding for pathogenesis-related proteins (PR1, PR2, PR3, PR5) in tobacco leaves; assay: Accumulation of PR transcripts in treated tobacco leaves (quantitative real-time PCR); assay type: in vivo
Experimental: The markers for the acquired local response (ALR) are tested for in the tobacco leaves that have been treated by the infiltration method (20 infiltration points per leaf/50 μL per infiltration) or by spraying (sufficient quantity to cover the leaf and obtain saturation, or approximately 2 mL per leaf) at a rate of 3 leaves per plant (non-senescent basal leaves). The leaves treated are separated from the plant 4 days after treatment and frozen immediately in liquid nitrogen for grinding and extraction of the total RNA. The RNA is extracted in the presence of CTAB buffer according to the protocol described by Chang et al. (1993) [Chang S, Puryear J, Cairney J (1993) A simple and efficient method for isolation RNA from pine trees. Plant mol Biol rep 11: 113-116]. The total RNA is purified and treated by DNase I (1 U) and RNase inhibitor (40 U) (Euromedex), in order to eliminate any possible contamination of the genomic DNA. The total RNA assay is run on the spectrophotometer (NanoDrop-1000). The integrity of the RNA is checked by agarose gel electrophoresis (1%) by detection of the ribosomal RNA subunits. The complementary DNA is synthesized from 1 μg of total RNA using Euroscript Reverse Transcriptase (Eurogentec). The PCR reactions are carried out with the Mastermix for SYBR GREEN kit (Eurogentec) using the iCycler iQ5 software (Bio-Rad). The specificity of the amplification is verified by melting curve analysis. The gene coding for EF-1α is used as an internal control. The quantification of the transcripts is calculated according to the mathematical model developed by Pfaffl (2001). [Pfaffl (2001) A new mathematical model for relative quantification in real time RT-PCR. Nucl. Acids res 29: 2002-7]. […]
4 days after the infiltration, the transcripts coding for pathogenesis-related proteins (PR proteins) are measured by quantitative real-time PCR. The total RNA is extracted from the infiltrated tobacco leaves. The cDNA is synthesized, and the transcripts of interest are quantified using specific primers of the genes PR1, PR2 and PR3.

[4] = 5 mmol·L^−1, infiltration, 4 days after treatment
[5] = 5 mmol·L^−1, spraying, 4 days after treatment
[6] = 50 mmol·L^−1, infiltration, 4 days after treatment
[7] = GA solutions 58.8 and 5.88 mmol·L^−1, infiltrated

Q: With `CCOC(=O)c1cc(O)c(O)c(O)c1` [EG, ethyl gallate] as the compound, how does the chlorosis ([1]; EG solutions 0.5 to 5 mmol·L^−1, 50 μL infiltrated on tobacco leaf, natural light) read?
A: Its chlorosis is “do not induce chlorosis”.

Q: What about the “production of autofluorescent compounds of the phytoalexin type around the infiltration sites” value ([1]; EG solutions 0.5 to 5 mmol·L^−1, infiltrated, UV 312 nm) of the same compound?
A: The value was “extensive production of autofluorescent compounds”.

Q: What about the “alkalinization of the extracellular medium” value [2] of the same compound?
A: The value was “induce a rapid alkalinization”.

Q: And the “Relative quantities of transcripts PR1” value [3, 4]?
A: The value was 6.7 ± 1.2.

Q: And the “Relative quantities of transcripts PR2” value [3, 4]?
A: The value was 6.2 ± 1.7.

Q: What about the “Relative quantities of transcripts PR3” value [3, 4] of the same compound?
A: Its value is 5.6 ± 1.3.

Q: And the “Relative quantities of transcripts PR1” value [3, 5]?
A: The value was 15 ± 0.4.

Q: And the “Relative quantities of transcripts PR2” value [3, 5]?
A: Its value is 32 ± 4.6.

Q: And the “Relative quantities of transcripts PR3” value [3, 5]?
A: Its value is 23 ± 7.1.

Q: What about the “Relative quantities of transcripts PR5” value [3, 5] of the same compound?
A: Its value is 14 ± 2.2.

Q: And the “Relative quantities of transcripts PR1” value [3, 6]?
A: The value was 3.7 ± 1.3.

Q: And the “Relative quantities of transcripts PR2” value [3, 6]?
A: Its value is 23.4 ± 3.3.

Q: What about the “Relative quantities of transcripts PR3” value [3, 6] of the same compound?
A: The value was 30.4 ± 5.3.

Q: And the “accumulation of transcripts that are markers of the defense reactions: PR1, PR2, PR3, PR5” value ([3]; EG solutions 5 and 50 mmol·L^−1, infiltration or spraying)?
A: Its value is “induce the accumulation of transcripts”.

Q: How did the “autofluorescent zones around the infiltration zones” value [1, 7] turn out when `O=C(O)c1cc(O)c(O)c(O)c1` [GA, gallic acid, reference compound] was run?
A: The value was “not accompanied by autofluorescent zones”.

Q: And the chlorosis [1, 7]?
A: Its chlorosis is “induce strong chlorosis”.

Q: What about the “effect on the pH of the culture medium” value ([2]; GA solutions 0.5 and 5 mmol·L^−1, 150 minutes) of the same compound?
A: Its value is “no effect on the pH”.

Q: And the “accumulation of transcripts (PR1, PR2, PR3) compared to water” value ([3]; GA solution 5.88 mmol·L^−1, infiltration, 4 days after infiltration)?
A: The value was “does not induce a significant accumulation of transcripts”.

Q: What does the source list for `COC(=O)c1cc(O)c(O)c(O)c1` [MG, methyl gallate]?
A: production of autofluorescent compounds around the infiltration sites ([1]; UV 312 nm): induce the same phenomenon of production of autofluorescent compounds; alkalinization of the extracellular medium [2]: induce a rapid alkalinization

Q: Which results are given for `CCCOC(=O)c1cc(O)c(O)c(O)c1` [PG, propyl gallate]?
A: production of autofluorescent compounds around the infiltration sites ([1]; UV 312 nm): induce the same phenomenon of production of autofluorescent compounds; alkalinization of the extracellular medium [2]: induce a rapid alkalinization
